Patent US9364467B2 (Salix Pharmaceuticals, Ltd, priority 2012, dated 2016)
Values after ≈ are worked out from the molar mass of the structure shown. Where two headings read alike, the source gives them in different places.

Experiments:
[1] = system: Enterobacteriaceae spp. strains; assay: In vitro activity (MIC) against Enterobacteriaceae spp. strains
S. epidermidis = assay: In vitro activity (MIC) against S. epidermidis strains

COC1/C=C/O[C@@]2(C)Oc3c(C)c(O)c4c(O)c(c5c(c4c3C2=O)NC2C=C(C)C=CN52)NC(=O)/C(C)=C\C=C\C(C)C(O)C(C)C(O)C(C)C(O)C1C (stereo partly shown) [25-desacetyl rifaximin]
MIC [1]: 128 µg/mL (≈ 172 µM)
MIC50 [1]: 128 µg/mL (≈ 172 µM)
MIC90 [1]: 256 µg/mL (≈ 343 µM)
MIC ([1]; Citrobacter freundii, C. freundii 57): 128 µg/mL (≈ 172 µM)
MIC ([1]; Citrobacter freundii, C. freundii 58): 128 µg/mL (≈ 172 µM)
MIC ([1]; Citrobacter freundii, C. freundii 65): 128 µg/mL (≈ 172 µM)
MIC ([1]; Citrobacter freundii, C. freundii 68): 256 µg/mL (≈ 343 µM)
MIC ([1]; Citrobacter freundii, C. freundii 69): 128 µg/mL (≈ 172 µM)
MIC ([1]; Citrobacter freundii, C. freundii 1070): 128 µg/mL (≈ 172 µM)
MIC ([1]; Citrobacter freundii, C. freundii 1073): 256 µg/mL (≈ 343 µM)
MIC ([1]; Citrobacter freundii, C. freundii 1075): 128 µg/mL (≈ 172 µM)
MIC ([1]; Enterobacter cloacae, E. cloacae 1): 128 µg/mL (≈ 172 µM)
MIC ([1]; Enterobacter cloacae, E. cloacae 3): 128 µg/mL (≈ 172 µM)
MIC ([1]; Enterobacter cloacae, E. cloacae 8): 256 µg/mL (≈ 343 µM)
MIC ([1]; Enterobacter cloacae, E. cloacae 12): 128 µg/mL (≈ 172 µM)
MIC ([1]; Enterobacter cloacae, E. cloacae 13): 128 µg/mL (≈ 172 µM)
MIC ([1]; Enterobacter cloacae, E. cloacae 14): 128 µg/mL (≈ 172 µM)
MIC ([1]; Enterobacter cloacae, E. cloacae 16): 128 µg/mL (≈ 172 µM)
MIC ([1]; Enterobacter cloacae, E. cloacae 20): 128 µg/mL (≈ 172 µM)
MIC ([1]; Enterobacter cloacae, E. cloacae 321): 128 µg/mL (≈ 172 µM)
MIC ([1]; Enterobacter cloacae, E. cloacae 348): 256 µg/mL (≈ 343 µM)
MIC ([1]; Enterobacter cloacae, E. cloacae 349): 128 µg/mL (≈ 172 µM)
MIC ([1]; Enterobacter cloacae, E. cloacae 358): 128 µg/mL (≈ 172 µM)
MIC ([1]; Enterobacter cloacae, E. cloacae 367): 128 µg/mL (≈ 172 µM)
MIC ([1]; Enterobacter cloacae, E. cloacae 369): 256 µg/mL (≈ 343 µM)
Range (MIC) ([1]; Enterobacteriaceae spp. strains): 128 to 256 mg/L
MIC ([1]; Escherichia coli, ATCC E. Coli 25922): 128 µg/mL (≈ 172 µM)
MIC ([1]; Escherichia coli, E. coli 6): 128 µg/mL (≈ 172 µM)
MIC ([1]; Escherichia coli, E. coli 15): 128 µg/mL (≈ 172 µM)
MIC ([1]; Escherichia coli, E. coli 34): 128 µg/mL (≈ 172 µM)
MIC ([1]; Escherichia coli, E. coli 37): 128 µg/mL (≈ 172 µM)
MIC ([1]; Escherichia coli, E. coli 41): 128 µg/mL (≈ 172 µM)
MIC ([1]; Escherichia coli, E. coli 43): 128 µg/mL (≈ 172 µM)
MIC ([1]; Escherichia coli, E. coli 44): 256 µg/mL (≈ 343 µM)
MIC ([1]; Escherichia coli, E. coli 46): 128 µg/mL (≈ 172 µM)
MIC ([1]; Escherichia coli, E. coli 47): 128 µg/mL (≈ 172 µM)
MIC ([1]; Escherichia coli, E. coli 48): 256 µg/mL (≈ 343 µM)
MIC ([1]; Escherichia coli, E. coli 49): 128 µg/mL (≈ 172 µM)
MIC ([1]; Escherichia coli, E. coli 56): 128 µg/mL (≈ 172 µM)
MIC ([1]; Escherichia coli, E. coli 62): 128 µg/mL (≈ 172 µM)
MIC ([1]; Escherichia coli, E. coli 71): 128 µg/mL (≈ 172 µM)
MIC ([1]; Escherichia coli, E. coli 90): 128 µg/mL (≈ 172 µM)
MIC ([1]; Escherichia coli, E. coli 92): 128 µg/mL (≈ 172 µM)
MIC ([1]; Escherichia coli, E. coli 93): 256 µg/mL (≈ 343 µM)
MIC ([1]; Escherichia coli, E. coli 95): 128 µg/mL (≈ 172 µM)
MIC ([1]; Escherichia coli, E. coli 96): 128 µg/mL (≈ 172 µM)
MIC ([1]; Escherichia coli, E. coli 97): 128 µg/mL (≈ 172 µM)
MIC ([1]; Escherichia coli, E. coli 100): 128 µg/mL (≈ 172 µM)
MIC ([1]; Escherichia coli, E. coli 102): 128 µg/mL (≈ 172 µM)
MIC ([1]; Escherichia coli, E. coli 103): 128 µg/mL (≈ 172 µM)
MIC ([1]; Escherichia coli, E. coli 109): 128 µg/mL (≈ 172 µM)
MIC ([1]; Escherichia coli, E. coli 110): 256 µg/mL (≈ 343 µM)
MIC ([1]; Escherichia coli, E. coli 112): 128 µg/mL (≈ 172 µM)
MIC ([1]; Escherichia coli, E. coli 113): 128 µg/mL (≈ 172 µM)
MIC ([1]; Escherichia coli, E. coli 117): 256 µg/mL (≈ 343 µM)
MIC ([1]; Escherichia coli, E. coli 118): 128 µg/mL (≈ 172 µM)
MIC ([1]; Escherichia coli, E. coli 120): 128 µg/mL (≈ 172 µM)
MIC ([1]; Escherichia coli, E. coli 140): 256 µg/mL (≈ 343 µM)
MIC ([1]; Escherichia coli, E. coli 171): 128 µg/mL (≈ 172 µM)
MIC ([1]; Escherichia coli, E. coli 342): 128 µg/mL (≈ 172 µM)
MIC ([1]; Escherichia coli, E. coli 343): 256 µg/mL (≈ 343 µM)
MIC ([1]; Escherichia coli, E. coli 345): 128 µg/mL (≈ 172 µM)
MIC ([1]; Escherichia coli, E. coli 349): 128 µg/mL (≈ 172 µM)
MIC ([1]; Escherichia coli, E. coli 351): 128 µg/mL (≈ 172 µM)
MIC ([1]; Klebsiella aerogenes, E. aerogenes 235): 128 µg/mL (≈ 172 µM)
MIC ([1]; Klebsiella aerogenes, E. aerogenes 281): 128 µg/mL (≈ 172 µM)
MIC ([1]; Klebsiella aerogenes, E. aerogenes 290): 128 µg/mL (≈ 172 µM)
MIC ([1]; Klebsiella aerogenes, E. aerogenes 1023): 128 µg/mL (≈ 172 µM)
MIC ([1]; Klebsiella aerogenes, E. aerogenes 1030): 256 µg/mL (≈ 343 µM)
MIC ([1]; Klebsiella aerogenes, E. aerogenes 1031): 128 µg/mL (≈ 172 µM)
MIC ([1]; Klebsiella oxytoca, K. oxytoca 4): 128 µg/mL (≈ 172 µM)
MIC ([1]; Klebsiella oxytoca, K. oxytoca 18): 128 µg/mL (≈ 172 µM)
MIC ([1]; Klebsiella oxytoca, K. oxytoca 479): 128 µg/mL (≈ 172 µM)
MIC ([1]; Klebsiella oxytoca, K. oxytoca 499): 128 µg/mL (≈ 172 µM)
MIC ([1]; Klebsiella pneumoniae, K. pneumoniae 17): 128 µg/mL (≈ 172 µM)
MIC ([1]; Klebsiella pneumoniae, K. pneumoniae 19): 128 µg/mL (≈ 172 µM)
MIC ([1]; Klebsiella pneumoniae, K. pneumoniae 76): 256 µg/mL (≈ 343 µM)
MIC ([1]; Klebsiella pneumoniae, K. pneumoniae 80): 128 µg/mL (≈ 172 µM)
MIC ([1]; Klebsiella pneumoniae, K. pneumoniae 91): 128 µg/mL (≈ 172 µM)
MIC ([1]; Klebsiella pneumoniae, K. pneumoniae 1064): 128 µg/mL (≈ 172 µM)
MIC ([1]; Morganella morganii, M. morganii 42): 128 µg/mL (≈ 172 µM)
MIC ([1]; Morganella morganii, M. morganii 48): 128 µg/mL (≈ 172 µM)
MIC ([1]; Morganella morganii, M. morganii 50): 128 µg/mL (≈ 172 µM)
MIC ([1]; Morganella morganii, M. morganii 57): 256 µg/mL (≈ 343 µM)
MIC ([1]; Morganella morganii, M. morganii 67): 256 µg/mL (≈ 343 µM)
MIC ([1]; Morganella morganii, M. morganii 101): 128 µg/mL (≈ 172 µM)
MIC ([1]; Morganella morganii, M. morganii 105): 128 µg/mL (≈ 172 µM)
MIC ([1]; Morganella morganii, M. morganii 108): 128 µg/mL (≈ 172 µM)
MIC ([1]; Morganella morganii, M. morganii 453): 128 µg/mL (≈ 172 µM)
MIC ([1]; Morganella morganii, M. morganii 458): 256 µg/mL (≈ 343 µM)
MIC ([1]; Morganella morganii, M. morganii 461): 128 µg/mL (≈ 172 µM)
MIC ([1]; Morganella morganii, M. morganii 462): 128 µg/mL (≈ 172 µM)
MIC ([1]; Morganella morganii, M. morganii 923): 128 µg/mL (≈ 172 µM)
MIC ([1]; Morganella morganii, M. morganii 932): 128 µg/mL (≈ 172 µM)
MIC ([1]; Morganella morganii, M. morganii 935): 256 µg/mL (≈ 343 µM)
MIC ([1]; Morganella morganii, M. morganii 1006): 128 µg/mL (≈ 172 µM)
MIC ([1]; Proteus mirabilis, P. mirabilis 465): 128 µg/mL (≈ 172 µM)
MIC ([1]; Proteus mirabilis, P. mirabilis 466): 128 µg/mL (≈ 172 µM)
MIC ([1]; Proteus mirabilis, P. mirabilis 469): 128 µg/mL (≈ 172 µM)
MIC ([1]; Proteus mirabilis, P. mirabilis 470): 128 µg/mL (≈ 172 µM)
MIC ([1]; Proteus mirabilis, P. mirabilis 471): 256 µg/mL (≈ 343 µM)
MIC ([1]; Proteus mirabilis, P. mirabilis 472): 128 µg/mL (≈ 172 µM)
MIC ([1]; Proteus mirabilis, P. mirabilis 473): 128 µg/mL (≈ 172 µM)
MIC ([1]; Proteus mirabilis, P. mirabilis 477): 128 µg/mL (≈ 172 µM)
MIC ([1]; Proteus mirabilis, P. mirabilis 479): 128 µg/mL (≈ 172 µM)
MIC ([1]; Proteus mirabilis, P. mirabilis 480): 256 µg/mL (≈ 343 µM)
MIC ([1]; Proteus mirabilis, P. mirabilis 489): 128 µg/mL (≈ 172 µM)
MIC ([1]; Proteus mirabilis, P. mirabilis 928): 128 µg/mL (≈ 172 µM)
MIC ([1]; Proteus mirabilis, P. mirabilis 972): 128 µg/mL (≈ 172 µM)
MIC ([1]; Proteus mirabilis, P. mirabilis 983): 128 µg/mL (≈ 172 µM)
MIC ([1]; Proteus mirabilis, P. mirabilis 985): 256 µg/mL (≈ 343 µM)
MIC ([1]; Proteus mirabilis, P. mirabilis 987): 128 µg/mL (≈ 172 µM)
MIC ([1]; Proteus mirabilis, P. mirabilis 988): 128 µg/mL (≈ 172 µM)
MIC ([1]; Proteus mirabilis, P. mirabilis 990): 128 µg/mL (≈ 172 µM)
MIC ([1]; Proteus mirabilis, P. mirabilis 991): 128 µg/mL (≈ 172 µM)
MIC ([1]; Proteus mirabilis, P. mirabilis 993): 128 µg/mL (≈ 172 µM)
MIC ([1]; Proteus mirabilis, P. mirabilis 995): 128 µg/mL (≈ 172 µM)
MIC ([1]; Proteus mirabilis, P. mirabilis 996): 128 µg/mL (≈ 172 µM)
MIC ([1]; Proteus mirabilis, P. mirabilis 997): 128 µg/mL (≈ 172 µM)
MIC ([1]; Proteus mirabilis, P. mirabilis 998): 256 µg/mL (≈ 343 µM)
MIC ([1]; Providencia stuartii, P. stuartii 94): 128 µg/mL (≈ 172 µM)
MIC ([1]; Providencia stuartii, P. stuartii 299): 128 µg/mL (≈ 172 µM)
MIC ([1]; Providencia stuartii, P. stuartii 301): 128 µg/mL (≈ 172 µM)
MIC ([1]; Providencia stuartii, P. stuartii 306): 256 µg/mL (≈ 343 µM)
MIC ([1]; Providencia stuartii, P. stuartii 312): 128 µg/mL (≈ 172 µM)
MIC ([1]; Providencia stuartii, P. stuartii 459): 128 µg/mL (≈ 172 µM)
MIC ([1]; S. liquefaciens 55): 256 µg/mL (≈ 343 µM)
MIC ([1]; S. odorifera 59): 128 µg/mL (≈ 172 µM)
MIC ([1]; Serratia marcescens, S. marcescens 38): 128 µg/mL (≈ 172 µM)
MIC ([1]; Serratia marcescens, S. marcescens 45): 128 µg/mL (≈ 172 µM)
MIC ([1]; Serratia marcescens, S. marcescens 59): 128 µg/mL (≈ 172 µM)
MIC ([1]; Serratia marcescens, S. marcescens 63): 256 µg/mL (≈ 343 µM)
MIC ([1]; Stenotrophomonas maltophilia, S. maltophilia 1203): 128 µg/mL (≈ 172 µM)
MIC ([1]; Stenotrophomonas maltophilia, S. maltophilia 1208): 128 µg/mL (≈ 172 µM)
MIC (S. epidermidis; Staphylococcus epidermidis): 0.12 µg/mL (≈ 0.161 µM)
MIC (S. epidermidis; strain S. epidermidis 354): 0.12 µg/mL (≈ 0.161 µM)
